What was measured:
Assay in all cases: cells
Type in all cases: functional, cell-based, Homo sapiens
NCI-H1436 = conditions: Homo sapiens, NCI-H1436;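 note: growth suppression of human NCI-H1436 cells, determined with a cell viability readout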
Description: SANGER: Inhibition of human NCI-H1436 cell growth in a cell viability assay.

SR = conditions: Homo sapiens, SR
Description: SANGER: Inhibition of human SR cell growth in a cell viability assay.

NCI-H1694 = conditions: Homo sapiens, NCI-H1694;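 note: cell viability assay measuring inhibition of growth in human NCI-H1694 cells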
Description: SANGER: Inhibition of human NCI-H1694 cell growth in a cell viability assay.

MHH-CALL-2 = conditions: Homo sapiens, MHH-CALL-2;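 note: growth inhibition of the cell line, read out in a cell viability assay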
Description: SANGER: Inhibition of human MHH-CALL-2 cell growth in a cell viability assay.

Kasumi 1 = conditions: Homo sapiens, Kasumi 1;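 note: growth inhibition of human Kasumi-1 cells, read out by a cell viability assay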
Description: SANGER: Inhibition of human KASUMI-1 cell growth in a cell viability assay.

NCI-H524 = conditions: Homo sapiens, NCI-H524;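 note: growth inhibition of human NCI-H524 cells, read out through a cell viability assay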
Description: SANGER: Inhibition of human NCI-H524 cell growth in a cell viability assay.

D-336MG = conditions: Homo sapiens, D-336MG
Description: SANGER: Inhibition of human D-336MG cell growth in a cell viability assay.

Daudi = conditions: Homo sapiens, Daudi;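 note: growth inhibition of Daudi cells, read out by a viability assay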
Description: SANGER: Inhibition of human Daudi cell growth in a cell viability assay.

LP-1 = conditions: Homo sapiens, LP-1;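 note: growth inhibition of human LP-1 cells, with the read-out taken from a cell viability assay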
Description: SANGER: Inhibition of human LP-1 cell growth in a cell viability assay.

SK-MM-2 = conditions: Homo sapiens, SK-MM-2;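 note: growth inhibition of human SK-MM-2 cells, read out with a cell viability assay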
Description: SANGER: Inhibition of human SK-MM-2 cell growth in a cell viability assay.

TE-441-T = conditions: Homo sapiens, TE-441-T
Description: SANGER: Inhibition of human TE-441-T cell growth in a cell viability assay.

MKN-28 = conditions: Homo sapiens, MKN-28;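 note: cell viability assay read-out, IC50 reflects suppression of growth of human MKN-28 cells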
Description: SANGER: Inhibition of human MKN28 cell growth in a cell viability assay.

HOP-92 = conditions: Homo sapiens, HOP-92;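 note: cell viability readout, with IC50 reflecting inhibition of HOP-92 cell growth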
Description: SANGER: Inhibition of human HOP-92 cell growth in a cell viability assay.

YKG-1 = conditions: Homo sapiens, YKG-1;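 note: cell growth inhibition, read out with a viability assay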
Description: SANGER: Inhibition of human YKG-1 cell growth in a cell viability assay.

ABC-1 = conditions: Homo sapiens, ABC-1;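 note: growth inhibition of human ABC-1 cells, read out by a cell viability assay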
Description: SANGER: Inhibition of human ABC-1 cell growth in a cell viability assay.

CAL-33 = conditions: Homo sapiens, CAL-33;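 note: growth inhibition of CAL-33 cells, read out with a cell viability assay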
Description: SANGER: Inhibition of human CAL-33 cell growth in a cell viability assay.

SK-MEL-24 = conditions: Homo sapiens, SK-MEL-24;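 note: growth inhibition read out by a cell viability assay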
Description: SANGER: Inhibition of human SK-MEL-24 cell growth in a cell viability assay.

RPMI-2650 = conditions: Homo sapiens, RPMI-2650
Description: SANGER: Inhibition of human RPMI-2650 cell growth in a cell viability assay.

NCI-H2052 = conditions: Homo sapiens, NCI-H2052;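 note: growth inhibition of NCI-H2052 cells, read out with a cell viability assay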
Description: SANGER: Inhibition of human NCI-H2052 cell growth in a cell viability assay.

TYK-nu = conditions: Homo sapiens, TYK-nu;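 note: growth inhibition of human TYK-nu cells, read out by a cell viability assay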
Description: SANGER: Inhibition of human TYK-nu cell growth in a cell viability assay.

GP5d = conditions: Homo sapiens, GP5d;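 note: growth inhibition of human GP5d cells, read out with a cell viability assay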
Description: SANGER: Inhibition of human GP5d cell growth in a cell viability assay.

NCI-H1755 = conditions: Homo sapiens, NCI-H1755;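 note: cell viability readout used to measure growth inhibition of NCI-H1755 cells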
Description: SANGER: Inhibition of human NCI-H1755 cell growth in a cell viability assay.

RO82-W-1 = conditions: Homo sapiens, RO82-W-1;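 note: growth inhibition of human RO82-W-1 cells, measured with a cell viability assay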
Description: SANGER: Inhibition of human RO82-W-1 cell growth in a cell viability assay.

EFO-27 = conditions: Homo sapiens, EFO-27;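 note: growth inhibition of EFO-27 cells, read out with a cell viability assay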
Description: SANGER: Inhibition of human EFO-27 cell growth in a cell viability assay.

NCI-H441 = conditions: Homo sapiens, NCI-H441;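 note: growth inhibition of NCI-H441 cells, read out with a cell viability assay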
Description: SANGER: Inhibition of human NCI-H441 cell growth in a cell viability assay.

CAL-120 = conditions: Homo sapiens, CAL-120;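 note: cell growth inhibition, read out as cell viability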
Description: SANGER: Inhibition of human CAL-120 cell growth in a cell viability assay.

M059J = conditions: Homo sapiens, M059J;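 note: growth inhibition of M059J cells, read out with a cell viability assay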
Description: SANGER: Inhibition of human M059J cell growth in a cell viability assay.

BFTC-905 = conditions: Homo sapiens, BFTC-905
Description: SANGER: Inhibition of human BFTC-905 cell growth in a cell viability assay.

PANC-08-13 = conditions: Homo sapiens, PANC-08-13;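 note: cell growth inhibition, measured with a cell viability assay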
Description: SANGER: Inhibition of human PANC-08-13 cell growth in a cell viability assay.

COLO-678 = conditions: Homo sapiens, COLO-678
Description: SANGER: Inhibition of human COLO-678 cell growth in a cell viability assay.

NCI-H2009 = conditions: Homo sapiens, NCI-H2009;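 note: cell viability assay measuring inhibition of NCI-H2009 cell growth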
Description: SANGER: Inhibition of human NCI-H2009 cell growth in a cell viability assay.

HuP-T4 = conditions: Homo sapiens, HuP-T4;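 note: cell viability assay measuring how much HuP-T4 cell growth is inhibited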
Description: SANGER: Inhibition of human HuP-T4 cell growth in a cell viability assay.

Calu-3 = conditions: Homo sapiens, Calu-3;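 note: growth inhibition of human Calu-3 cells, determined with a cell viability assay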
Description: SANGER: Inhibition of human Calu-3 cell growth in a cell viability assay.

NCI-H292 = conditions: Homo sapiens, NCI-H292;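 note: growth inhibition of NCI-H292 cells, read out with a cell viability assay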
Description: SANGER: Inhibition of human NCI-H292 cell growth in a cell viability assay.

UMC-11 = conditions: Homo sapiens, UMC-11;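 note: growth inhibition of UMC-11 cells, read out with a cell viability assay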
Description: SANGER: Inhibition of human UMC-11 cell growth in a cell viability assay.

SNU-387 = conditions: Homo sapiens, SNU-387
Description: SANGER: Inhibition of human SNU-387 cell growth in a cell viability assay.

U-118-MG = conditions: Homo sapiens, U-118-MG
Description: SANGER: Inhibition of human U-118-MG cell growth in a cell viability assay.

ACHN = conditions: Homo sapiens, ACHN;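 note: cell viability read-out used to gauge how strongly growth of human ACHN cells is suppressed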
Description: SANGER: Inhibition of human ACHN cell growth in a cell viability assay.

HuP-T3 = conditions: Homo sapiens, HuP-T3;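 note: HuP-T3 cell growth inhibition, read out with a cell viability assay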
Description: SANGER: Inhibition of human HuP-T3 cell growth in a cell viability assay.

SW-620 = conditions: Homo sapiens, SW-620;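 note: growth inhibition of human SW-620 cells, measured by a cell viability assay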
Description: SANGER: Inhibition of human SW620 cell growth in a cell viability assay.

COLO-741 = conditions: Homo sapiens, COLO-741
Description: SANGER: Inhibition of human COLO-741 cell growth in a cell viability assay.

RVH-421 = conditions: Homo sapiens, RVH-421
Description: SANGER: Inhibition of human RVH-421 cell growth in a cell viability assay.

SAOS-2 = conditions: Homo sapiens, SAOS-2;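 note: growth inhibition of human Saos-2 cells determined by a cell viability assay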
Description: SANGER: Inhibition of human Saos-2 cell growth in a cell viability assay.

NCI-H2170 = conditions: Homo sapiens, NCI-H2170;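 note: cell viability assay measuring growth inhibition of human NCI-H2170 cancer cells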
Description: SANGER: Inhibition of human NCI-H2170 cell growth in a cell viability assay.

HT-3 = conditions: Homo sapiens, HT-3;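 note: growth inhibition measured with a cell viability readout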
Description: SANGER: Inhibition of human HT-3 cell growth in a cell viability assay.

ESS-1 = conditions: Homo sapiens, ESS-1;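 note: growth inhibition of human ESS-1 cells, read out by a cell viability assay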
Description: SANGER: Inhibition of human ESS-1 cell growth in a cell viability assay.

NCI-H2452 = conditions: Homo sapiens, NCI-H2452;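 note: growth inhibition of NCI-H2452 cells, read out with a cell viability assay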
Description: SANGER: Inhibition of human NCI-H2452 cell growth in a cell viability assay.

C32 = conditions: Homo sapiens, C32;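 note: cell viability assay, with IC50 reflecting inhibition of C32 cell growth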
Description: SANGER: Inhibition of human C32 cell growth in a cell viability assay.

OCCCNc1cc(-c2ccnc(Nc3cccc(Cl)c3)n2)ccn1
IC50 (NCI-H1436): 251 nM
IC50 (SR): 25.5 nM
IC50 (NCI-H1694): > 256 nM
IC50 (MHH-CALL-2): 85.5 nM
IC50 (Kasumi 1): > 256 nM
IC50 (NCI-H524): > 256 nM
IC50 (D-336MG): 109 nM
IC50 (Daudi): 55.3 nM
IC50 (LP-1): 52.1 nM
IC50 (SK-MM-2): 124 nM
IC50 (TE-441-T): 38.4 nM

C#Cc1cccc(Nc2ncnc3cc(OCCOC)c(OCCOC)cc23)c1 [ERLOTINIB]
IC50 (SR): > 2000 nM
IC50 (NCI-H1694): > 2000 nM
IC50 (MHH-CALL-2): > 2000 nM
IC50 (Kasumi 1): > 2000 nM
IC50 (NCI-H524): > 2000 nM
IC50 (D-336MG): > 2000 nM
IC50 (Daudi): > 2000 nM
IC50 (LP-1): > 2000 nM
IC50 (SK-MM-2): > 2000 nM
IC50 (TE-441-T): > 2000 nM

Nc1ccn([C@@H]2O[C@H](CO)[C@@H](O)C2(F)F)c(=O)n1 [GEMCITABINE]
IC50 (NCI-H1436): > 1020 nM
IC50 (MKN-28): > 1020 nM
IC50 (HOP-92): 951 nM
IC50 (YKG-1): < 4 nM
IC50 (ABC-1): 22.6 nM
IC50 (CAL-33): 1.89 nM
IC50 (SK-MEL-24): > 1020 nM
IC50 (RPMI-2650): 17.6 nM
IC50 (SR): 2.12 nM
IC50 (NCI-H2052): 145 nM
IC50 (NCI-H1694): 61.3 nM
IC50 (TYK-nu): 72.6 nM
IC50 (GP5d): 28.7 nM
IC50 (MHH-CALL-2): 1020 nM
IC50 (NCI-H524): > 1020 nM
IC50 (NCI-H1755): 718 nM
IC50 (RO82-W-1): > 1020 nM
IC50 (EFO-27): 9.05 nM
IC50 (NCI-H441): 5.6 nM
IC50 (CAL-120): 576 nM
IC50 (M059J): 21.1 nM
IC50 (BFTC-905): < 4 nM
IC50 (PANC-08-13): > 1020 nM
IC50 (COLO-678): > 1020 nM
IC50 (NCI-H2009): < 4 nM
IC50 (HuP-T4): 27.3 nM
IC50 (Calu-3): 17.3 nM
IC50 (NCI-H292): 20.8 nM
IC50 (UMC-11): > 1020 nM
IC50 (SNU-387): 827 nM
IC50 (U-118-MG): > 1020 nM
IC50 (ACHN): < 4 nM
IC50 (Daudi): 569 nM
IC50 (HuP-T3): 146 nM
IC50 (SW-620): 1.35 nM
IC50 (COLO-741): 120 nM
IC50 (RVH-421): > 1020 nM
IC50 (SAOS-2): > 1020 nM
IC50 (NCI-H2170): 12 nM
IC50 (LP-1): > 1020 nM
IC50 (HT-3): 201 nM
IC50 (ESS-1): < 4 nM
IC50 (NCI-H2452): > 1020 nM
IC50 (SK-MM-2): 479 nM
IC50 (C32): > 1020 nM
IC50 (TE-441-T): > 1020 nM
